pEC50: −log10 of the molar value. Where two headings read alike, the source gives them in different places.
Target: T1, human M2 receptor (Homo sapiens, UniProt P08172)
T1 sequence (P08172 1-466): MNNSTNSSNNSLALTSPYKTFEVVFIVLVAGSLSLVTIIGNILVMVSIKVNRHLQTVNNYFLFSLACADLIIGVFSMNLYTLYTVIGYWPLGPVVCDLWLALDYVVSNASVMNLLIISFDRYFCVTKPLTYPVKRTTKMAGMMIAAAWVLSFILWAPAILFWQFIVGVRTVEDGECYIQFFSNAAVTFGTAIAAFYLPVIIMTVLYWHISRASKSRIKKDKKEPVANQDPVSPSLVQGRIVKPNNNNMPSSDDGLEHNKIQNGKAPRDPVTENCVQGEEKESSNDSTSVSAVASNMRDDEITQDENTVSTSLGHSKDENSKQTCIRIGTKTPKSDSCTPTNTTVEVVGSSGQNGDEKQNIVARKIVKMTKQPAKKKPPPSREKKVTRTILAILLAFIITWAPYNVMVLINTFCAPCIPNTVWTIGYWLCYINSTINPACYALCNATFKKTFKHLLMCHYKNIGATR
Conditions: for Emax: read-out: Efficiency, boosting of the acetylcholine effect at EC20 acetylcholine concentration

[1] = Receptor activity EC50, allosteric potency at EC20 acetylcholine, M2-GIRK1/4 reporter cells, in some cases mean of two or more determinations
[2] = Receptor activity EC50, M2-GIRK1/4 activation test, acetylcholine at EC20, allosteric potency, in some cases mean values from two or more determinations

SMILES	pEC50 [1]	Emax (M2-GIRK1/4 reporter cells) [%]	pEC50 [2]
O=C(N[C@@H](C1CC1)C(F)(F)F)c1cn(-c2c(F)cc(F)cc2F)c2nc(N3CC[C@@H](O)C3=O)ccc2c1=O [Example 466, N-[(1 S)-1-Cyclopropyl-2,2,2-trifluoroethyl]-7-[(3R)-3-hydroxy-2-oxopyrrolidin-1-yl]-4-oxo-1-(2,4,6-trifluorophenyl)-1,4-dihydro-1,8-naphthyridine-3-carboxamide]	7.59	100	–
CC[C@@H](NC(=O)c1cn(-c2ccc(F)cc2F)c2nc(N3CC(C)(OC)C3)ccc2c1=O)C(F)(F)F [Example 328, 1-(2,4-Difluorophenyl)-7-(3-methoxy-3-methyazetidin-1-yl)-4-oxo-N-[(2R)-1,1,1-trifluorobutan-2-yl]-1,4-dihydro-1,8-naphthyridine-3-carboxamide]	–	–	7.10
O=C(N[C@@H](C1CC1)C(F)(F)F)c1cn(-c2c(F)cc(F)cc2F)c2nc(N3CC[C@@H](O)[C@H](O)C3)ccc2c1=O (single isomer, unassigned) [Example 616]	7.43	90.5	–
O=C(NC(c1ccccc1Cl)C(F)(F)F)c1cn(-c2c(F)cc(F)cc2F)c2nc(N3C[C@@H](O)[C@H](O)C3)ccc2c1=O (mixture of isomers) [Example 560, N-[1-(2-Chlorophenyl)-2,2,2-trifluoroethyl]-7-[(3R,4R)-3,4-dihydroxypyrrolidin-1-yl]-4-oxo-1-(2,4,6-trifluorophenyl)-1,4-dihydro-1,8-naphthyridine-3-carboxamide]	7.77	100	–
O=C(NCC(F)(F)F)c1cn(-c2ccc(F)cc2F)c2nc(N3CC[C@H](F)C3)ccc2c1=O [Example 67, 1-(2,4-Difluorophenyl)-7-[(3S)-3-fluoropyrrolidin-1-yl]-4-oxo-N-(2,2,2-trifluoroethyl)-1,4-dihydro-1,8-naphthyridine-3-carboxamide]	–	–	6.86
CC[C@@H](NC(=O)c1cn(-c2ccc(F)cc2F)c2nc(N3CC(O)C(C)(C)C3)ccc2c1=O)C(F)(F)F (stereo partly drawn) [Example 356, 1-(2,4-Difluorophenyl)-7-[4-hydroxy-3,3-dimethylpyrrolidin-1-yl]-4-oxo-N-[(2R)-1,1,1-trifluorobutan-2-yl]-1,4-dihydro-1,8-naphthyridine-3-carboxamide]	–	–	7.03
CCC12CC3CC(C1)CC(NC(=O)c1cn(-c4ccc(F)cc4Cl)c4nc(N(C)C)ccc4c1=O)(C3)C2 [Example 157, 1-(2-Chloro-4-fluorophenyl)-7-(dimethylamino)-N-(3-ethyltricyclo[3.3.1.1^3,7]dec-1-yl)-4-oxo-1,4-dihydro-1,8-naphthyridine-3-carboxamide]	–	–	7.17
CCC(NC(=O)c1cn(-c2ccc(F)cc2F)c2nc(N(C)CC(F)F)ccc2c1=O)C(F)(F)F (racemic) [Example 114, rac-7-[(2,2-Difluoroethyl)(methyl)amino]-1-(2,4-difluorophenyl)-4-oxo-N-[1,1,1-trifluorobutan-2-yl]-1,4-dihydro-1,8-naphthyridine-3-carboxamide]	–	–	7.01
CCC(NC(=O)c1cn(-c2ccc(F)cc2F)c2nc(N3CCCS3(=O)=O)ccc2c1=O)C(F)(F)F (stereo not drawn) [Example 180]	–	–	6.94
CC(C)(NC(=O)c1cn(-c2ccc(F)cc2F)c2nc(N3CC[C@@H](O)C3)ccc2c1=O)c1c(F)cccc1F [Example 21, 1-(2,4-Difluorophenyl)-N-[2-(2,6-difluorophenyl)propan-2-yl]-7-[(3R)-3-hydroxypyrrolidin-1-yl]-4-oxo-1,4-dihydro-1,8-naphthyridine-3-carboxamide]	–	–	6.84
CC1CC(=O)N(c2ccc3c(=O)c(C(=O)N[C@@H](C4CC4)C(F)(F)F)cn(-c4c(F)cc(F)cc4Cl)c3n2)C1 (mixture of isomers) [Example 429, 1-(2-Chloro-4,6-difluorophenyl)-N-[(1 S)-1-cyclopropyl-2,2,2-trifluoroethyl]-7-[4-methyl-2-oxopyrrolidin-1-yl]-4-oxo-1,4-dihydro-1,8-naphthyridine-3-carboxamide]	7.80	99	–
CN(C)c1ccc2c(=O)c(C(=O)NC3(C)CCCCC3)cn(-c3ccc(F)cc3Cl)c2n1 [Example 156, 1-(2-Chloro-4-fluorophenyl)-7-(dimethylamino)-N-(1-methylcyclohexyl)-4-oxo-1,4-dihydro-1,8-naphthyridine-3-carboxamide]	–	–	7.07
CC[C@H](NC(=O)c1cn(-c2c(F)cc(F)cc2F)c2nc(N3CC(F)C3)ccc2c1=O)C(F)(F)F [Example 501]	7.24	98	–
CNc1ccc2c(=O)c(C(=O)NC34CCC(CC3)CC4)cn(-c3ccc(F)cc3F)c2n1 [Example 162]	–	–	7.42
CC(NC(=O)c1cn(-c2c(F)cc(F)cc2F)c2nc(N3CCNC3=O)ccc2c1=O)C(F)(F)C(F)(F)F (racemic) [Example 540, 4-Oxo-7-(2-oxoimidazolidin-1-yl)-N-[3,3,4,4,4-pentafluorobutan-2-yl]-1-(2,4,6-trifluorophenyl)-1,4-dihydro-1,8-naphthyridine-3-carboxamide]	8.05	90	–
CCCC(NC(=O)c1cn(-c2ccc(F)cc2F)c2nc(NCC(F)F)ccc2c1=O)C(F)(F)F (stereo not drawn) [Example 124, 7-[(2,2-Difluoroethyl)amino]-1-(2,4-difluorophenyl)-4-oxo-N-[1,1,1-trifluoropentan-2-yl]-1,4-dihydro-1,8-naphthyridine-3-carboxamide]	–	–	6.81
CC(C)[C@@H](C)NC(=O)c1cn(-c2c(F)cc(F)cc2F)c2nc(N3C[C@@H](O)CC3=O)ccc2c1=O [Example 473, 7-[(4S)-4-Hydroxy-2-oxopyrrolidin-1-yl]-N-[(2R)-3-methylbutan-2-yl]-4-oxo-1-(2,4,6-trifluorophenyl)-1,4-dihydro-1,8-naphthyridine-3-carboxamide]	7.51	100	–
CC(C)CC(NC(=O)c1cn(-c2ccc(F)cc2F)c2nc(N(C)C)ccc2c1=O)C(F)(F)F (racemic) [Example 145, rac-1-(2,4-Difluorophenyl)-7-(dimethylamino)-4-oxo-N-(1,1,1-trifluoro-4-methylpentan-2-yl)-1,4-dihydro-1,8-naphthyridine-3-carboxamide]	–	–	7.52
CN(CCF)c1ccc2c(=O)c(C(=O)NC34CCC(F)(CC3)CC4)cn(-c3ccc(F)cc3F)c2n1 [Example 110, 1-(2,4-Difluorophenyl)-N-(4-fluorobicyclo[2.2.2]oct-1-yl)-7-[(2-fluoroethyl)(methyl)amino]-4-oxo-1,4-dihydro-1,8-naphthyridine-3-carboxamide]	–	–	7.21
CC(C)C[C@@H](NC(=O)c1cn(-c2ccc(F)cc2F)c2nc(N(C)C)ccc2c1=O)C(F)(F)F [Example 133, 1-(2,4-Difluorophenyl)-7-(dimethylamino)-4-oxo-N-[(2R)-1,1,1-trifluoro-4-methylpentan-2-yl]-1,4-dihydro-1,8-naphthyridine-3-carboxamide]	–	–	7.72
O=C(NC12CC3CC(CC(C3)C1)C2)c1cn(-c2ccc(F)cc2F)c2nc(N3CCSC3)ccc2c1=O [Example 129, 1-(2,4-Difluorophenyl)-4-oxo-7-(1,3-thiazolidin-3-yl)-N-(tricyclo[3.3.1.1^3,7]dec-1-yl)-1,4-dihydro-1,8-naphthyridine-3-carboxamide]	–	–	7.35
O=C1CN(c2ccc3c(=O)c(C(=O)NC45CC6CC(CC(C6)C4)C5)cn(-c4ccc(F)cc4F)c3n2)CCN1 [Example 18, 1-(2,4-Difluorophenyl)-4-oxo-7-(3-oxopiperazin-1-yl)-N-(tricyclo[3.3.1.1^3,7]dec-1-yl)-1,4-dihydro-1,8-naphthyridine-3-carboxamide]	–	–	6.93
O=C(N[C@@H](C1CC1)C(F)(F)F)c1cn(-c2c(F)cc(F)cc2F)c2nc(N3CC4(COC4)C3)ccc2c1=O [Example 492]	7.36	97.5	–
CC(C)(CC(F)(F)F)NC(=O)c1cn(-c2c(F)cc(F)cc2Cl)c2nc(N3C[C@@H](O)CC3=O)ccc2c1=O [Example 395, 1-(2-Chloro-4,6-difluorophenyl)-7-[(4S)-4-hydroxy-2-oxopyrrolidin-1-yl]-4-oxo-N-(4,4,4-trifluoro-2-methylbutan-2-yl)-1,4-dihydro-1,8-naphthyridine-3-carboxamide]	8.15	100	–
Cc1ccc(C(NC(=O)c2cn(-c3ccc(F)cc3F)c3nc(N(C)C)ccc3c2=O)C(F)(F)F)cc1 (racemic) [Example 141, rac-1-(2,4-Difluorophenyl)-7-(dimethylamino)-4-oxo-N-[2,2,2-trifluoro-1-(4-methylphenyl)ethyl]-1,4-dihydro-1,8-naphthyridine-3-carboxamide]	–	–	7.08
COC(=O)N1CCN(c2ccc3c(=O)c(C(=O)N[C@H](C4CC4)C(F)(F)F)cn(-c4c(F)cc(F)cc4F)c3n2)CC1 [Example 594, Methyl 4-[6-{[(1R)-1-cyclopropyl-2,2,2-trifluoroethyl]carbamoyl}-5-oxo-8-(2,4,6-trifluorophenyl)-5,8-dihydro-1,8-naphthyridin-2-yl]piperazine-1-carboxylate]	7.74	100	–

Reference: patent US20190367516A1 (Bayer Pharma Aktiengesellschaft, priority 2015, published 2019)
